In patent US20220325235A1, “CELL CULTURE METHODS” (The University of Massachusetts, priority 2019, published 2022):
Entries after “also recorded” stand apart in the source; their conditions may differ.

How the values were obtained:
CHO-K1 cell line = assay: Fed-batch spiking test: IgG glycan profile by HPLC with Glycan Column; assay type: cell-based, Chinese hamster
Protocol: Industrial standard Fed-batch process: CHO-K1 cell line is cultured in corresponding media. Feed for 14 days, with 6 mM glutamine supplement on the inoculation day. The working volume is 30 mL in 125 mL shake flasks, and the inoculation cell density is 0.5 million cells/mL. The parameters for the shaking incubator are: 125 RPM, and 5% CO2. The feeding strategy is 10% corresponding feed everyday starting from day 3 to day 13.
In the standard industrial fed-batch process, cells were exposed to the inhibitors for a long period of time. This experiment mimics the therapeutic antibody production process, and spikes the inhibitors at their end-of-culture cellular concentration. ICA was confirmed as a known inhibitor and was used as a positive inhibitor control. Mixture condition excluded ICA and included AA, HICA, CMP, MSA, TRI, NAP. The process lasted for 14 days, and starting from day 6, the cell density under the inhibitor conditions were lower than the negative control batch.
IgG titer was measured by HPLC with a Protein A column. Product quality was quantified by the IgG glycan profile, which was measured by HPLC with a Glycan Column.

CHO cells = assay: Batch culture spiking of metabolites at end-of-culture concentration: cell density; assay type: cell-based, Chinese hamster; conditions: 6 days, spiked at end-of-culture concentration
Protocol: CHO K-1 industrial standard batch process: NIH CHO-K1 cell line is cultured for 6 days, with 6 mM glutamine supplement on the inoculation day. The working volume is 30 mL in 125 mL shake flasks, and the inoculation cell density is 0.5 million cells/mL. The parameters for the shaking incubator are: 125 RPM, and 5% CO2.
Cells were exposed to the identified inhibitory metabolites of Table 1 at their end-of-culture concentration for 6 days in batch culture. […] All of the inhibitory metabolites decreased the antibody productivity (FIG. 4).

| Structure (SMILES) | Impact on G1F formation compared to control group (CHO-K1 cell line) | Impact on G2F formation compared to control group (CHO-K1 cell line; Day 14) | Cell density compared with the control group (CHO cells) |
| --- | --- | --- | --- |
| O=C(O)C=C(CC(=O)O)C(=O)O [AA, aconitic acid] | higher impact | totally inhibits; also recorded: G2F was not formed | lower cell density |
| Nc1ccn([C@@H]2O[C@H](COP(=O)(O)O)[C@@H](O)[C@H]2O)c(=O)n1 [CMP, cytidine monophosphate] | higher impact |  | lower cell density |
| CC(C)CC(O)C(=O)O (stereo not drawn) [HICA, leucinic acid] | higher impact |  |  |
| O=C(O)c1c[nH]c2ccccc12 [ICA, indole-3-carboxylic acid, reference compound] | higher impact |  | lower cell density |
| CC(CC(=O)O)C(=O)O (stereo not drawn) [MSA, methylsuccinic acid] | higher impact |  |  |
